In assay [1] the test system is A549. The experiment in a line: Cytotoxicity against human A549 cells. In kind it is functional. The note with it: read-out: ED50 (the source's name).
In assay [2] the test system is MCF7. The experiment in a line: Cytotoxicity against human MCF7 cells. It is filed as functional. The settings on record: read-out: ED50 (the source's name).
For assay [3], the system named is HT-29. The experiment in a line: Cytotoxicity against human HT-29 cells. The settings on record: for EC50: Homo sapiens, HT-29, read-out: ED50 (the source's name). In kind it is functional.
A short description of assay [4]: Chemopreventive activity in Chinese hamster embryonic cells assessed as inhibition of benzo[a]pyrene metabolism to water soluble derivatives. It is filed as functional, Cricetulus griseus. The settings on record: for IC50: Cricetulus griseus, read-out: ID50 (the source's name).
Assay [5] is described as follows: Cytotoxicity against mouse 9PS cells. It is filed as functional. The settings on record: for EC50: Mus musculus, read-out: ED50 (the source's name).
Assay [6] in a line: Chemopreventive activity in Chinese hamster embryonic cells assessed as inhibition of benzo[a]pyrene metabolism at 10 to 25 ug/ml. In kind it is functional, Cricetulus griseus.
Assay [7] concerns P388. The experiment in a line: In vivo antitumor activity against mouse P388 cells at 20 mg/kg relative to control. In kind it is functional.
Assay [8] is described as follows: Cytotoxicity against human 9KB cells. In kind it is functional. The note with it: read-out: ED50 (the source's name).
For assay [9], the system named is P388. Put plainly: In vivo antitumor activity against mouse P388 cells at 50 mg/kg relative to control. It is filed as functional.

The values below come from ChEMBL document CHEMBL1151137, “Natural products as a source of potential cancer chemotherapeutic and chemopreventive agents” (1990).

Values after ≈ are worked out from the molar mass of the structure shown.

`COc1cc(C2Oc3c(OC)cc4c(=O)c5c(OC)cccc5oc4c3OC2COC(C)=O)ccc1O` (centres undefined): the EC50 was 4 µg/mL (≈ 7.87 µM) in assay [1], > 10 µg/mL in [2] and 4 µg/mL (≈ 7.87 µM) in assay [3].

In the case of `COc1cc(C2Oc3c(OC)cc4c(=O)c5c(OC)cccc5oc4c3OC2CO)cc(OC)c1O` (centres undefined), the EC50 in assay [1], in assay [2] and in [3] was > 10 µg/mL throughout.

With `COc1cc(C2Oc3ccc4c(=O)c5c(O)cc(O)cc5oc4c3OC2CO)cc(OC)c1O` (centres undefined), the EC50 in assay [1] was 3 µg/mL (≈ 6.4 µM); in assay [2], > 10 µg/mL; in [3], 0.4 µg/mL (≈ 0.854 µM).

For the compound `COc1cc2c(c3oc4c(O)cccc4c(=O)c13)C[C@H]([C@](C)(O)COC(C)=O)O2`, the EC50 in assay [1] is 2 µg/mL (≈ 5 µM); in assay [2] it was 2.5 µg/mL (≈ 6.24 µM); in assay [3], 0.016 µg/mL (≈ 0.04 µM).

Regarding `COc1cc(C2Oc3c(OC)cc4c(=O)c5ccccc5oc4c3OC2CO)ccc1O` (centres undefined), the values for the EC50 in assay [1], in [2] and in assay [3] were 3 µg/mL (≈ 6.87 µM), > 10 µg/mL and 3 µg/mL (≈ 6.87 µM), respectively.

For `COc1cc(C2Oc3c(OC)cc4c(=O)c5ccccc5oc4c3OC2CO)cc(OC)c1O` (centres undefined), the EC50 in assay [1], in assay [2] and in assay [3] was > 10 µg/mL each time.

In the case of `COc1cc(C2Oc3c(OC)cc4c(=O)c5c(OC)cccc5oc4c3OC2CO)ccc1O` (centres undefined), the EC50 in assay [1], in assay [2] and in [3] was > 10 µg/mL each time.

Turning to `COc1cc2c(c3oc4c(O)cccc4c(=O)c13)C[C@H]([C@](C)(O)CO)O2`, the EC50 was > 10 µg/mL in assay [1], > 10 µg/mL in assay [2] and 2.3 µg/mL (≈ 6.42 µM) in assay [3].

Take `COc1ccc(-c2coc3cc(OC)cc(O)c3c2=O)cc1` [4',7-DIMETHOXY-5-HYDROXYGENISTEIN]: the IC50 in assay [4] is > 50 µg/mL.

Turning to `COc1ccc(-c2cc(=O)c3c(O)cc(O)cc3o2)cc1` [ACACETIN], in assay [4], the IC50 was determined as 15 µg/mL (≈ 52.8 µM).

Take `CCCCCCCCCCCC[C@@H](O)[C@H]1CC[C@H]([C@H](O)CCCCC(=O)CCCCC[C@@H](O)CC2=C[C@H](C)OC2=O)O1` [ANNONACINONE]: the EC50 in assay [1] was 0.1 µg/mL (≈ 0.168 µM); in [3], 1 µg/mL (≈ 1.68 µM). In addition, the ED50 in assay [5] is 1 ×10⁻⁶ ug/ml.

For `CCCCCCCCCCCC[C@@H](O)[C@H]1CC[C@H]([C@H](O)CCCC[C@H](O)CCCCC[C@@H](O)CC2=CC(C)OC2=O)O1` (some centres undefined) [ANNONACIN], the EC50 amounted to 0.001 µg/mL (≈ 0.00168 µM) in assay [1] and 3 µg/mL (≈ 5.03 µM) in assay [3]. The compound also yielded an ED50 in [5] of 1 ×10⁻⁵ ug/ml.

As to `O=c1cc(-c2ccc(O)cc2)oc2cc(O)cc(O)c12` [APIGENIN], the IC50 in assay [4] came out at 17 µg/mL (≈ 62.9 µM).

On to `COc1ccc(-c2coc3cc(OC)cc(OC)c3c2=O)cc1` [BIOCHANIN A, DIMETHYL ETHER], for which the IC50 in [4] turned out to be 50 µg/mL (≈ 160 µM).

Regarding `COc1ccc(-c2coc3cc(O)cc(O)c3c2=O)cc1` [BIOCHANIN], the “inhibition (INH)” value in [6] worked out at 30%. For the same compound, the IC50 in assay [4] turned out to be 25 µg/mL (≈ 87.9 µM).

Turning to `O=c1cc(-c2ccccc2)oc2cc(O)cc(O)c12` [CHRYSIN], in [4], the IC50 turned out to be 12 µg/mL (≈ 47.2 µM).

Turning to `O=c1c(-c2ccc(O)cc2)coc2cc(O)cc(O)c12` [GENISTEIN], the IC50 in assay [4] came out at 30 µg/mL (≈ 111 µM).

Take `COc1cccc(C/C(=N/OS(=O)(=O)O)S[C@@H]2O[C@H](CO)[C@@H](O)[C@H](O)[C@H]2O)c1` [GLUCOLIMNANTHIN]: the “inhibition (INH)” value in assay [4] was 71%.

Consider `CCCCCCCCCCCC[C@H](O)[C@@H]1CC[C@@H]([C@@H](O)CCCCC(=O)CCCCCC2CC(CC(C)=O)C(=O)O2)O1` (some centres undefined) [ISOANNONACINONE], for which the EC50 in assay [1] was determined as 0.07 µg/mL (≈ 0.118 µM); in [5] it was 0.5 µg/mL (≈ 0.841 µM); in [3] it was 0.009 µg/mL (≈ 0.0151 µM).

As for `CCCCCCCCCCCC[C@H](O)[C@@H]1CC[C@@H]([C@@H](O)CCCCC(O)CCCCCC2CC(CC(C)=O)C(=O)O2)O1` (some centres undefined) [ISOANNONACIN], the EC50 amounted to 0.02 µg/mL (≈ 0.0335 µM) in [1], 3 µg/mL (≈ 5.03 µM) in [5] and 0.002 µg/mL (≈ 0.00335 µM) in assay [3].

For `CC(C)c1oc(=O)cc2c1[C@@H](O)[C@H]1OC(=O)[C@@]3(C)[C@@H](O)[C@H]4O[C@H]4[C@@]2(C)[C@@H]13` [NAGILACTONE C], in assay [7], the T/C came out at 145%.

Take `O=C1C[C@@H]2c3ccccc3O[C@H]3c4cc(O)ccc4-c4c(O)cc(O)c1c4[C@H]23` [OHIOENSIN A]: the EC50 was > 10 µg/mL in [1]; 1 µg/mL (≈ 2.69 µM) in [5]; 9 µg/mL (≈ 24.2 µM) in assay [2]; > 10 µg/mL in [3]; > 10 µg/mL in [8].

Turning to `O=C1C[C@@H]2c3ccccc3O[C@H]3c4cccc(O)c4-c4c(O)cc(O)c1c4[C@H]23` [OHIOENSIN B], the EC50 is 8 µg/mL (≈ 21.5 µM) in [1]; 1 µg/mL (≈ 2.69 µM) in [5]; 7 µg/mL (≈ 18.8 µM) in [2]; > 10 µg/mL in [3]; > 10 µg/mL in assay [8].

With `COc1cc(O)c2c3c1-c1c(O)cccc1[C@@H]1Oc4ccccc4[C@@H](CC2=O)[C@@H]31` [OHIOENSIN C], the EC50 in [1] is > 10 µg/mL; in [5], > 10 µg/mL; in assay [2], 3 µg/mL (≈ 7.76 µM); in [3] it was 4 µg/mL (≈ 10.4 µM); in [8], 10 µg/mL (≈ 25.9 µM).

As for `COc1cc(O)c2c3c1-c1c(ccc(O)c1O)[C@@H]1Oc4ccccc4[C@@H](CC2=O)[C@@H]31` [OHIOENSIN D], the EC50 in assay [1] was > 10 µg/mL; in assay [5], 1 µg/mL (≈ 2.49 µM); in assay [2] it was > 10 µg/mL; in assay [3] it was > 10 µg/mL; in assay [8] it was > 10 µg/mL.

Regarding `COc1ccc2c(c1O)-c1c(OC)cc(O)c3c1[C@@H]1[C@H](CC3=O)c3ccccc3O[C@@H]21` [OHIOENSIN E], the EC50 in [1] was 6 µg/mL (≈ 14.4 µM); in assay [5] it was 1 µg/mL (≈ 2.4 µM); in assay [2], > 10 µg/mL; in assay [3], > 10 µg/mL; in assay [8], > 10 µg/mL.

With `C[S+]([O-])C[C@@](C)(O)[C@H]1OC(=O)C=C2[C@@]13O[C@@H]3[C@H]1OC(=O)[C@@]3(C)[C@H]4O[C@H]4C[C@@]2(C)[C@@H]13` (some centres undefined) [PODOLACTONE C], the T/C in assay [7] was 151%.

As to `CC(C)[C@H]1OC(=O)C=C2[C@@]13O[C@@H]3[C@H]1OC(=O)[C@@]3(C)C=CC[C@@]2(C)[C@@H]13` [PODOLIDE], the T/C in assay [9] is recorded as 127%.

In the case of `COc1cc2c(c3oc4c(O)cccc4c(=O)c13)[C@@H]1OC[C@@](C)(O)[C@@H]1O2` [PSOROFEBRIN], the EC50 in assay [1] was > 10 µg/mL; in assay [2], > 10 µg/mL; in [3], 8.5 µg/mL (≈ 23.9 µM).

For `COc1cc2c(c3oc4c(O)cccc4c(=O)c13)C[C@H]([C@@]1(C)CO1)O2` [PSOROSPERMIN], the EC50 stood at 0.0016 µg/mL (≈ 0.0047 µM) in assay [1] and 0.012 µg/mL (≈ 0.0353 µM) in [2]. In addition, the ED50 in assay [3] is given as >1 ×10⁻⁵ ug/ml.
